Read-outs that look alike come from different tables or passages of the source.
Legend:
[1] = target: PctA-LBD (Pseudomonas aeruginosa, UniProt G3XD24); conditions: for binding to PctA-LBD (in words): direct microcalorimetric titration
[2] = target: T1, McpU-LBD (Pseudomonas putida, UniProt Q88NI1); test: ITC binding of ligands to McpU-LBD; set-up: species or system Pseudomonas putida KT2440; conditions: for ΔH McpU-LBD / Kd: 25°C; for Kd: polybuffer pH 7.0
[3] = system: KT2440; test: Growth with ligand as sole carbon or nitrogen source, KT2440; conditions: KT2440, minimal medium, 5 mM ligand
[4] = system: PAO1; test: Growth with ligand as sole carbon or nitrogen source, PAO1; conditions: PAO1, minimal medium, 5 mM ligand
[5] = target: T1, McpU-LBD; conditions: read-out: KD McpU-LBD; ITC; reported previously; cited from earlier work
[6] = target: TlpQ-LBD (Pseudomonas aeruginosa, UniProt Q9I0I4); test: biochemical; type: binding, Pseudomonas aeruginosa PAO1
Chain of TlpQ-LBD (Pseudomonas aeruginosa, UniProt Q9I0I4) (Q9I0I4 33-359): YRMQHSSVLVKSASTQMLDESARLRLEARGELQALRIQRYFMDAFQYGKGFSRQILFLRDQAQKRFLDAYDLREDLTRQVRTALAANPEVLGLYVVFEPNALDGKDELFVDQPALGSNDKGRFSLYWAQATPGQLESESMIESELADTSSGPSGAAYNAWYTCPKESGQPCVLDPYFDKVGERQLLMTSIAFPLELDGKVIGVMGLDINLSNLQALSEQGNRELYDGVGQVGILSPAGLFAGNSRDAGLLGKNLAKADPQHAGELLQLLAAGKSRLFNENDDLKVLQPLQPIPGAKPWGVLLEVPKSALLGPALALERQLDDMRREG

[7] = target: TlpQ-LBD; test: biochemical; type: binding, Pseudomonas aeruginosa PAO1; conditions: ratio of ITC KD values
[8] = target: T1, McpU-LBD; test: Thermal shift assay of McpU-LBD; type: binding, Pseudomonas putida KT2440; conditions: 10 µM McpU-LBD, Biolog plate PM3B; Tm without ligand 46.5°C
Experimental: Thermal shift experiments were conducted as reported in reference in [57]. McpU-LBD in polybuffer {5 mM Tris, 5 mM PIPES [piperazine-N,N′-bis(2-ethanesulfonic acid)], 5 mM MES [morpholineethanesulfonic acid], 10% glycerol [vol/vol], 150 mM NaCl, pH 7.0} was used at a final concentration of 10 µM. Biolog (Hayward, CA, USA) compound arrays PM3B (nitrogen sources), PM4A (phosphorous and sulfur sources), and PM5 (nutrient supplements) were used for screening. The compositions of these arrays are provided at http://208.106.130.253/pdf/pm_lit/PM1-PM10.pdf.

[9] = system: Ralstonia pseudosolanacearum Ps29; conditions: Ps29, minimal medium, 5 mM
[10] = system: P. putida KT2440
[11] = system: P. aeruginosa strains 233, 401 and PA14; conditions: 5 mM histamine; all analyzed P. aeruginosa strains
Experimental: (§1) Two protocols were used that differed in the ways the cells were counted. The first protocol was used to generate the data shown Fig. S6, whereas the second protocol was used for the remaining chemotaxis experiments. In the first protocol, overnight cultures of strains were diluted to an OD660 of 0.05 in MS medium ([58]) supplemented with 6 mg·liter^−1 Fe citrate, trace elements, and 15 mM glucose and grown at 37°C. At an OD660 of 0.4, the cultures were centrifuged at 1,700 × g for 5 min and the pellet was washed twice with chemotaxis buffer (50 mM potassium phosphate, […], 0.05% [vol/vol] glycerol, pH 7.0). The cells were resuspended in this buffer and adjusted to an OD660 of 0.1, and 230-µl aliquots were placed into 96-well plates. Capillary tubes (P1424, Microcaps; Drummond Scientific) were heat sealed at one end and filled with chemotaxis buffer or chemotaxis chemoattractant solution. The capillaries were then immersed in bacterial suspensions at their open ends. After 30 min at room temperature, the capillaries were removed and rinsed with sterile water, and the content was expelled into 1 ml of M9 medium. Serial dilutions were plated on LB medium, and the CFU were determined. In all cases, the data were corrected to the number of cells that swam into the buffer-containing capillaries. In the second protocol, we used computer-assisted image analysis as reported previously ([59]). Briefly, capillaries were filled with chemoattractant solutions in 10 mM HEPES buffer (pH 7.0) containing 1% (wt/vol) agarose and heat sealed on one side. The cells were grown in 2× yeast extract-tryptone (YT), medium and 10-μl aliquots of the cell suspension were placed onto a microscope slide within the U-shaped spacer, which was then covered by a coverslip. The chemoattractant-filled capillaries were introduced into the chemotaxis chamber, and cell movement was videotaped, with images taken at the beginning and at different time intervals. If not otherwise stated, the contact time between the cell and the chemoattractant was 2 min. The Bioinformatics Assistant Icy Sport detector software ([60]) was used to determine the number of cells per image. The magnitude of chemotaxis was expressed as the number of cells after a given time over the number of cells at the beginning of the experiment. The data shown are the means and standard deviations from three experiments conducted in triplicates.

[12] = system: P. aeruginosa PAO1 mutant strains
Experimental: as §1

[13] = system: P. aeruginosa PA14 mutant defective in pctA, pctC and tlpQ; conditions: deletion of pctA, tlpQ homologues
Experimental: as §1

[14] = system: P. aeruginosa PAO1; conditions: PAO1, capillary assay
Experimental: as §1

[15] = system: Ralstonia pseudosolanacearum Ps29; conditions: 5 mM histamine, strain Ps29
[16] = target: PctC-LBD (Pseudomonas aeruginosa, UniProt Q9HW93); test: Microcalorimetric binding studies with PctC-LBD; set-up: species or system Pseudomonas aeruginosa PAO1; conditions: direct microcalorimetric titration
Chain of PctC-LBD (Q9HW93 32-279): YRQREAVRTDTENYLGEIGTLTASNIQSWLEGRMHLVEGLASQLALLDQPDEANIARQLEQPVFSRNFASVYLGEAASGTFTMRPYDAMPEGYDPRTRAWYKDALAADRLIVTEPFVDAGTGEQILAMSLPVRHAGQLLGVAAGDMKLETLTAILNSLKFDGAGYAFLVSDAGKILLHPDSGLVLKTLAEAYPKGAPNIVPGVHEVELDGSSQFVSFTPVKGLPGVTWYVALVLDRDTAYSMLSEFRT

T1 sequence (Q88NI1 50-284): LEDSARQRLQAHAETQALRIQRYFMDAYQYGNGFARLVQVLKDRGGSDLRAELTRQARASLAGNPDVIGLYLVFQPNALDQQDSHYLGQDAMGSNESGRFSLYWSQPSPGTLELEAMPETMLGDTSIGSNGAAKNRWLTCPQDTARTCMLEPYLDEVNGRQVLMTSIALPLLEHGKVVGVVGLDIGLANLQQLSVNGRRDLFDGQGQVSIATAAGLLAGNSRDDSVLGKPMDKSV
Chain of PctA-LBD (G3XD24 32-276): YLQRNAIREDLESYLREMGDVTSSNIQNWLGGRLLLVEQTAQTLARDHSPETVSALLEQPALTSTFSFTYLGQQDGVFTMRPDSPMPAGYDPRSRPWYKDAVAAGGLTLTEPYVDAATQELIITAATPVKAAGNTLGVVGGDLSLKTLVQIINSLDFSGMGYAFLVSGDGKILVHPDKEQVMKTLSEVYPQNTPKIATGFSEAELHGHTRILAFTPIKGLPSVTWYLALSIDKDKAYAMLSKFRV

C[C@H](N)C(=O)O [L-Ala, L-alanine, reference compound]
binding to PctA-LBD (in words) [1]: bound

NCCCCNCCCN [Spermidine]
ΔH McpU-LBD [2]: -4.3 ± 0.3 kcal/mol
growth as sole carbon or nitrogen source [3]: either not or were poor growth substrates
growth as sole carbon or nitrogen source [4]: either not or were poor growth substrates
Kd [5]: 4500 ± 400 nM
Kd [6]: 56 ± 4 nM
ΔH TlpQ-LBD ([6]; ITC, 25°C): -4.6 ± 0.4 kcal/mol
KD McpU-LBD/KD TlpQ-LBD [7]: 80

NCCCCN=C(N)N [Agmatine]
binding to McpU-LBD (in words) [2]: Very tight binding
ΔH McpU-LBD [2]: -14.5 ± 0.2 kcal/mol
Kd [2]: 480 ± 20 nM
Tm increase of McpU-LBD [8]: greater than 2 °C
Kd [6]: 150 ± 9 nM
ΔH TlpQ-LBD ([6]; ITC, 25°C): -5.4 ± 0.1 kcal/mol
KD McpU-LBD/KD TlpQ-LBD [7]: 3

NCCN [Ethylenediamine]
binding to McpU-LBD (in words) [2]: much lower affinities
ΔH McpU-LBD [2]: -9.7 ± 0.5 kcal/mol
Kd [2]: 39000 ± 4000 nM
Tm increase of McpU-LBD [8]: greater than 2 °C
growth as sole carbon or nitrogen source [3]: either not or were poor growth substrates
growth as sole carbon or nitrogen source [4]: either not or were poor growth substrates
binding to TlpQ-LBD (in words) ([6]; ITC): slightly weaker
ΔH TlpQ-LBD ([6]; ITC, 25°C): -6.3 ± 0.6 kcal/mol
Kd ([6]; ITC, 25°C, polybuffer pH 7.0, read-out: KD TlpQ-LBD): 1710 nM
KD McpU-LBD/KD TlpQ-LBD [7]: 23

NCCc1c[nH]cn1 [Histamine]
growth as sole carbon and nitrogen source [9]: no significant growth
binding to McpU-LBD (in words) [2]: much lower affinities
ΔH McpU-LBD [2]: -2.6 ± 0.3 kcal/mol
Kd [2]: 26000 ± 2000 nM
concentration at onset of chemotactic response ([10]; KT2440, capillary assay): 5 µM
chemotaxis (in words) ([10]; KT2440, histamine dose response): only moderate chemotaxis
Tm increase of McpU-LBD [8]: greater than 2 °C
growth as sole carbon or nitrogen source [3]: permitted the growth
chemotaxis (in words) [11]: significant chemotaxis
chemotaxis of PCT2Q complemented with pctA, pctC or tlpQ ([12]; 500 µM histamine, 2.5 min): significant chemotaxis
chemotaxis of PCT2Q complemented with pctC or tlpQ in trans ([12]; 500 µM histamine, exposure time 1 min): recovered histamine chemotaxis
chemotaxis of strain PCT2 (pctA, pctB, pctC deleted) ([12]; 5 mM histamine): abolished chemotaxis
concentration range of significant chemotaxis of PCT2 mutant ([12]; dose response): 0.5 µM and 500 µM
chemotaxis of PCT2Q mutant (pctABC and tlpQ deleted) ([12]; entire concentration range 50 nM to 50 mM): devoid of histamine chemotaxis
chemotaxis of PA14 triple mutant [13]: abolished histamine chemotaxis
concentration at onset of chemotactic response [14]: 500 nM
chemotaxis (in words) ([14]; 2 min): much stronger
growth as sole carbon or nitrogen source [4]: permitted the growth
chemotaxis (in words) [15]: not attracted
binding to PctC-LBD (in words) [16]: did not bind
binding to PctA-LBD, competition assay (in words) ([1]; PctA-LBD titrated with L-Ala with and without 20 mM histamine): does not bind directly
binding to PctA-LBD (in words) [1]: did not bind
Kd [6]: 639 ± 27 nM
ΔH TlpQ-LBD ([6]; ITC, 25°C): -9.1 ± 0.3 kcal/mol
KD McpU-LBD/KD TlpQ-LBD [7]: 41

NCCCCN [Putrescine]
ΔH McpU-LBD [2]: -15 ± 0.5 kcal/mol
Kd [5]: 2000 ± 100 nM
Kd [6]: 134 ± 12 nM
ΔH TlpQ-LBD ([6]; ITC, 25°C): -6.8 ± 0.3 kcal/mol
KD McpU-LBD/KD TlpQ-LBD [7]: 15

C=C [ethylene]
binding to TlpQ-LBD (in words) ([6]; ITC): did not show any binding

NCCCCCN [Cadaverine]
ΔH McpU-LBD [2]: -15.5 ± 0.5 kcal/mol
Kd [5]: 22000 ± 2000 nM
Kd [6]: 150 ± 4 nM
ΔH TlpQ-LBD ([6]; ITC, 25°C): -6.0 ± 0.1 kcal/mol
KD McpU-LBD/KD TlpQ-LBD [7]: 147

NC(=O)CC[C@H](N)C(=O)O [L-Gln, reference compound]
binding to PctC-LBD (in words) [16]: bound
